The text below walks through data of patent US7906507B2, “Oxadiazoanthracene compounds for the treatment of diabetes” (TransTech Pharma, Inc., priority 2008, dated 2011).

This experiment addresses T1, cloned human GLP-1 receptor (Homo sapiens, UniProt P43220).
T1 construct: expressed in transfected cells; host or cells: CHO or HEK-293 cells
As to the kind of experiment: Functional cell-based assay: cAMP functional assay. As to conditions: for Emax: 0.5 h, percentage relative to maximal GLP-1-induced cAMP accumulation, na = not active in the assay, read-out: % activation. The method, then: Following overnight incubation of cells, media was removed, and compounds (at concentrations ranging from 0.0001 to 100 μM) were added to monolayer cells in Iscove's modified dulbecco's medium (IMDM), 100 μM RO 20-1724 PDE inhibitor, 0.1% BSA, 2% DMSO in a final volume of 100 μL, and incubated for 30 min at 37° C. 95% O2, 5% CO2 in a humidified incubator. cAMP was quantitated using a homogenous time-resolved fluorescence detection system (cAMP dynamic, CIS bio International).

T1 sequence (P43220 24-463): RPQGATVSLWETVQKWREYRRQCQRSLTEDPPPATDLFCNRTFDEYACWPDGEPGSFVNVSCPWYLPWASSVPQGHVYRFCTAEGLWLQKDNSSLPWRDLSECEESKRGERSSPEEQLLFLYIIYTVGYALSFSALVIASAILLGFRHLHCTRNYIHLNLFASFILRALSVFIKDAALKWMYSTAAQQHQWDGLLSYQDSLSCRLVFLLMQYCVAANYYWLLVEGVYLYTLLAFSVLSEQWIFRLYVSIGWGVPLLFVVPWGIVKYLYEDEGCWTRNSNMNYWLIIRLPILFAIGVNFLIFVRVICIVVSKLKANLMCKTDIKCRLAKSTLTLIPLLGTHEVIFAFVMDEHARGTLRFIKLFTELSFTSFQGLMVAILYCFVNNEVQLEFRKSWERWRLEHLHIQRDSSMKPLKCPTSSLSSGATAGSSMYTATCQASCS

`N#Cc1ccc(-c2ccc(C[C@H](NC(=O)[C@@H]3Cc4cc5c(cc4CN3C(=O)OCC3CC3)OC(c3ccc(OCc4ccc(Cl)c(Cl)c4)cc3)C(=O)N5)C(=O)O)cc2)cc1` (stereo partly drawn) [Example 18, (S)-7-[(S)-1-Carboxy-2-(4′-cyano-biphenyl-4-yl)-ethylcarbamoyl]-3-[4-(3,4-dichloro-benzyloxy)-phenyl]-2-oxo-1,2,3,5,7,8-hexahydro-4-oxa-1,6-diaza-anthracene-6-carboxylic acid cyclopropylmethyl ester]: the EC50 was 270 nM and the Emax came to 74.7%.
As for `N#Cc1ccc(-c2ccc(C[C@H](NC(=O)[C@@H]3Cc4cc5c(cc4CN3C(=O)O[C@@H]3CCOC3)OC(c3ccc(OCc4ccc(Cl)c(Cl)c4)cc3)C(=O)N5)C(=O)O)cc2)cc1` (stereo partly drawn) [Example 19, (S)-7-[(S)-1-Carboxy-2-(4′-cyano-biphenyl-4-yl)-ethylcarbamoyl]-3-[4-(3,4-dichloro-benzyloxy)-phenyl]-2-oxo-1,2,3,5,7,8-hexahydro-4-oxa-1,6-diaza-anthracene-6-carboxylic acid (R)-(tetrahydro-furan-3-yl) ester], it took 181 nM to reach a half-maximal effect (EC50) and the Emax was determined as 69.9%.
Turning to `N#Cc1ccc(-c2ccc(C[C@H](NC(=O)[C@@H]3Cc4cc5c(cc4CN3C(=O)c3ccco3)OC(c3ccc(OCc4ccc(Cl)c(Cl)c4)cc3)C(=O)N5)C(=O)O)cc2)cc1` (stereo partly drawn) [Example 20, (S)-3-(4′-Cyano-biphenyl-4-yl)-2-{[(S)-3-[4-(3,4-dichloro-benzyloxy)-phenyl]-6-(furan-2-carbonyl)-2-oxo-2,3,5,6,7,8-hexahydro-1H-4-oxa-1,6-diaza-anthracene-7-carbonyl]-amino}-propionic acid], the response was half-maximal at 417 nM (EC50) and the Emax was 83.5%.
Take `Cc1cccc(C(=O)N2Cc3cc4c(cc3C[C@H]2C(=O)N[C@@H](Cc2ccc(-c3ccc(C#N)cc3)cc2)C(=O)O)NC(=O)C(c2ccc(OCc3ccc(Cl)c(Cl)c3)cc2)O4)c1` (stereo partly drawn) [Example 21, (S)-3-(4′-Cyano-biphenyl-4-yl)-2-{[(S)-3-[4-(3,4-dichloro-benzyloxy)-phenyl]-6-(3-methyl-benzoyl)-2-oxo-2,3,5,6,7,8-hexahydro-1H-4-oxa-1,6-diaza-anthracene-7-carbonyl]-amino}-propionic acid]: it took 399 nM to reach a half-maximal effect (EC50) and the Emax is 70.3%.
Consider `N#Cc1ccc(-c2ccc(C[C@H](NC(=O)[C@@H]3Cc4cc5c(cc4CN3C(=O)c3ccc(F)cc3)OC(c3ccc(OCc4ccc(Cl)c(Cl)c4)cc3)C(=O)N5)C(=O)O)cc2)cc1` (stereo partly drawn) [Example 22, (S)-3-(4′-Cyano-biphenyl-4-yl)-2-{[(S)-3-[4-(3,4-dichloro-benzyloxy)-phenyl]-6-(4-fluoro-benzoyl)-2-oxo-2,3,5,6,7,8-hexahydro-1H-4-oxa-1,6-diaza-anthracene-7-carbonyl]-amino}-propionic acid], for which the EC50 was found to be 891 nM and the Emax was found to be 73.5%.
With `COc1ccc(C(=O)N2Cc3cc4c(cc3C[C@H]2C(=O)N[C@@H](Cc2ccc(-c3ccc(C#N)cc3)cc2)C(=O)O)NC(=O)C(c2ccc(OCc3ccc(Cl)c(Cl)c3)cc2)O4)cc1` (stereo partly drawn) [Example 23, (S)-3-(4′-Cyano-biphenyl-4-yl)-2-{[(S)-3-[4-(3,4-dichloro-benzyloxy)-phenyl]-6-(4-methoxy-benzoyl)-2-oxo-2,3,5,6,7,8-hexahydro-1H-4-oxa-1,6-diaza-anthracene-7-carbonyl]-amino}-propionic acid], the midpoint of the response, the EC50, lay at 1280 nM and the Emax stood at 65.5%.
As to `N#Cc1ccc(-c2ccc(C[C@H](NC(=O)[C@@H]3Cc4cc5c(cc4CN3C(=O)c3cccc(C(F)(F)F)c3)OC(c3ccc(OCc4ccc(Cl)c(Cl)c4)cc3)C(=O)N5)C(=O)O)cc2)cc1` (stereo partly drawn) [Example 24, (S)-3-(4′-Cyano-biphenyl-4-yl)-2-{[(S)-3-[4-(3,4-dichloro-benzyloxy)-phenyl]-2-oxo-6-(3-trifluoromethyl-benzoyl)-2,3,5,6,7,8-hexahydro-1H-4-oxa-1,6-diaza-anthracene-7-carbonyl]-amino}-propionic acid], a half-maximal response (EC50) required 1600 nM and the Emax is 53%.
In the case of `N#Cc1ccc(-c2ccc(C[C@H](NC(=O)[C@@H]3Cc4cc5c(cc4CN3C(=O)C3CCCCC3)OC(c3ccc(OCc4ccc(Cl)c(Cl)c4)cc3)C(=O)N5)C(=O)O)cc2)cc1` (stereo partly drawn) [Example 25, (S)-3-(4′-Cyano-biphenyl-4-yl)-2-({(S)-6-cyclohexanecarbonyl-3-[4-(3,4-dichloro-benzyloxy)-phenyl]-2-oxo-2,3,5,6,7,8-hexahydro-1H-4-oxa-1,6-diaza-anthracene-7-carbonyl}-amino)-propionic acid], it took 594 nM to reach a half-maximal effect (EC50) and the Emax came to 12%.
On the same counts, the results for `N#Cc1ccc(-c2ccc(C[C@H](NC(=O)[C@@H]3Cc4cc5c(cc4CN3C(=O)c3cccc4ccccc34)OC(c3ccc(OCc4ccc(Cl)c(Cl)c4)cc3)C(=O)N5)C(=O)O)cc2)cc1` (stereo partly drawn) [Example 26, (S)-3-(4′-Cyano-biphenyl-4-yl)-2-{[(S)-3-[4-(3,4-dichloro-benzyloxy)-phenyl]-6-(naphthalene-1-carbonyl)-2-oxo-2,3,5,6,7,8-hexahydro-1H-4-oxa-1,6-diaza-anthracene-7-carbonyl]-amino}-propionic acid] are 1100 nM and 14%.
For `N#Cc1ccc(-c2ccc(C[C@H](NC(=O)[C@@H]3Cc4cc5c(cc4CN3C(=O)c3cccs3)OC(c3ccc(OCc4ccc(Cl)c(Cl)c4)cc3)C(=O)N5)C(=O)O)cc2)cc1` (stereo partly drawn) [Example 28, (S)-3-(4′-Cyano-biphenyl-4-yl)-2-{[(S)-3-[4-(3,4-dichloro-benzyloxy)-phenyl]-2-oxo-6-(thiophene-2-carbonyl)-2,3,5,6,7,8-hexahydro-1H-4-oxa-1,6-diaza-anthracene-7-carbonyl]-amino}-propionic acid], the midpoint of the response, the EC50, lay at 398 nM and the Emax turned out to be 29%.
On the same counts, the results for `CC(C)(C)OC(=O)N1Cc2cc3c(cc2C[C@H]1C(=O)N[C@@H](Cc1ccc(-c2ccc(C#N)cc2)cc1)C(=O)O)NC(=O)C(c1ccc(OCc2ccc(Cl)c(Cl)c2)cc1)O3` (stereo partly drawn) [Example 29, (S)-7-[(S)-1-Carboxy-2-(4′-cyano-biphenyl-4-yl)-ethylcarbamoyl]-3-[4-(3,4-dichloro-benzyloxy)-phenyl]-2-oxo-1,2,3,5,7,8-hexahydro-4-oxa-1,6-diaza-anthracene-6-carboxylic acid tert-butyl ester] are 290 nM and 17%.
The corresponding values for `Cc1cc(C(=O)N2Cc3cc4c(cc3C[C@H]2C(=O)N[C@@H](Cc2ccc(-c3ccc(C#N)cc3)cc2)C(=O)O)NC(=O)C(c2ccc(OCc3ccc(Cl)c(Cl)c3)cc2)O4)no1` (stereo partly drawn) [Example 31, (S)-3-(4′-Cyano-biphenyl-4-yl)-2-{[(S)-3-[4-(3,4-dichloro-benzyloxy)-phenyl]-6-(5-methyl-isoxazole-3-carbonyl)-2-oxo-2,3,5,6,7,8-hexahydro-1H-4-oxa-1,6-diaza-anthracene-7-carbonyl]-amino}-propionic acid] are 1000 nM and 13%.
For `N#Cc1ccc(-c2ccc(C[C@H](NC(=O)[C@@H]3Cc4cc5c(cc4CN3S(=O)(=O)c3cccs3)OC(c3ccc(OCc4ccc(Cl)c(Cl)c4)cc3)C(=O)N5)C(=O)O)cc2)cc1` (stereo partly drawn) [Example 32, (S)-3-(4′-Cyano-biphenyl-4-yl)-2-{[(S)-3-[4-(3,4-dichloro-benzyloxy)-phenyl]-2-oxo-6-(thiophene-2-sulfonyl)-2,3,5,6,7,8-hexahydro-1H-4-oxa-1,6-diaza-anthracene-7-carbonyl]-amino}-propionic acid], the EC50 came out at 700 nM and the Emax was found to be 8.3%.
Turning to `CN(C)C(=O)N1Cc2cc3c(cc2C[C@H]1C(=O)N[C@@H](Cc1ccc(-c2ccc(C#N)cc2)cc1)C(=O)O)NC(=O)C(c1ccc(OCc2ccc(Cl)c(Cl)c2)cc1)O3` (stereo partly drawn) [Example 33, (S)-3-(4′-Cyano-biphenyl-4-yl)-2-({(S)-3-[4-(3,4-dichloro-benzylozy)-phenyl]-2-oxo-6-dimethylcarbamoyl-2-oxo-2,3,5,6,7,8-hexahydro-1H-4-oxa-1,6-diaza-anthracene-7-carbonyl}-amino)-propionic acid], the EC50 stood at 1300 nM and the Emax is 7%.
The corresponding values for `N#Cc1ccc(-c2ccc(C[C@H](NC(=O)[C@@H]3Cc4cc5c(cc4CN3Cc3ccccc3)OC(c3ccc(OCc4ccc(Cl)c(Cl)c4)cc3)C(=O)N5)C(=O)O)cc2)cc1` (stereo partly drawn) [Example 34, (S)-2-({(S)-6-Benzyl-3-[4-(3,4-dichloro-benzyloxy)-phenyl]-2-oxo-2,3,5,6,7,8-hexahydro-1H-4-oxa-1,6-diaza-anthracene-7-carbonyl}-amino)-3-(4′-cyano-biphenyl-4-yl)-propionic acid] are 160 nM and 31%.
Turning to `N#Cc1ccc(-c2ccc(C[C@H](NC(=O)[C@@H]3Cc4cc5c(cc4CN3CCc3ccccc3)OC(c3ccc(OCc4ccc(Cl)c(Cl)c4)cc3)C(=O)N5)C(=O)O)cc2)cc1` (stereo partly drawn) [Example 35, (S)-3-(4′-Cyano-biphenyl-4-yl)-2-({(S)-3-[4-(3,4-dichloro-benzyloxy)-phenyl]-2-oxo-6-phenethyl-2,3,5,6,7,8-hexahydro-1H-4-oxa-1,6-diaza-anthracene-7-carbonyl}-amino)-propionic acid], a half-maximal response (EC50) required 1200 nM and the Emax came to 16%.
As to `N#Cc1ccc(-c2ccc(C[C@H](NC(=O)[C@@H]3Cc4cc5c(cc4CN3C(=O)c3c(F)cc(F)cc3F)OC(c3ccc(OCc4ccc(Cl)c(Cl)c4)cc3)C(=O)N5)C(=O)O)cc2)cc1` (stereo partly drawn) [Example 36, (S)-3-(4′-Cyano-biphenyl-4-yl)-2-{[(S)-3-[4-(3,4-dichloro-benzyloxy)-phenyl]-2-oxo-6-(2,4,6-trifluoro-benzoyl)-2,3,5,6,7,8-hexahydro-1H-4-oxa-1,6-diaza-anthracene-7-carbonyl]-amino}-propionic acid], the response was half-maximal at 660 nM (EC50) and the Emax was determined as 13%.
